Experimental data taken from ChEMBL document CHEMBL6078642, “Design, Synthesis, and Activity Evaluation of BRD4 PROTAC Based on Alkenyl Oxindole-DCAF11 Pair” (J Med Chem, 2024).
Activity calls are given as the source filed them. No cut-off for these calls is given here.

How the values were obtained:
MDA-MB-231 = experiment: Antiproliferative activity against human MDA-MB-231 cells assessed as reduction in cell viability incubated for 2 days by CCK8 assay; format: functional, cell-based; settings: MDA-MB-231, 48 h
MDA-MB-468 = experiment: Antiproliferative activity against human MDA-MB-468 cells assessed as reduction in cell viability incubated for 2 days by CCK8 assay; format: functional, cell-based; settings: MDA-MB-468, 48 h
HEK293T = experiment: Induction of BRD4 BD1 domain (unknown origin) degradation expressed in DCAF11 knockout HEK293T cells assessed as decrease in red fluorescence at 1 uM incubated for 12 hrs by dual fluorescence reporter cell based high content imaging analysis; settings: Homo sapiens
DCAF11-BRD4 [1] = molecular target: T1, DCAF11-BRD4 (Homo sapiens, UniProt O60885+Q8TEB1); experiment: PROTAC activity at DCAF11/BRD4 BD1 domain (unknown origin) expressed in HEK293T cells assessed as induction of BRD4 degradation at 1 uM incubated for 12 hrs by Dual fluorescence reporter cell high content imaging analysis relative to control; format: cell-based
T1 sequence (Q8TEB1 whole entry, looked up, other chains not shown, the tested form may be a part): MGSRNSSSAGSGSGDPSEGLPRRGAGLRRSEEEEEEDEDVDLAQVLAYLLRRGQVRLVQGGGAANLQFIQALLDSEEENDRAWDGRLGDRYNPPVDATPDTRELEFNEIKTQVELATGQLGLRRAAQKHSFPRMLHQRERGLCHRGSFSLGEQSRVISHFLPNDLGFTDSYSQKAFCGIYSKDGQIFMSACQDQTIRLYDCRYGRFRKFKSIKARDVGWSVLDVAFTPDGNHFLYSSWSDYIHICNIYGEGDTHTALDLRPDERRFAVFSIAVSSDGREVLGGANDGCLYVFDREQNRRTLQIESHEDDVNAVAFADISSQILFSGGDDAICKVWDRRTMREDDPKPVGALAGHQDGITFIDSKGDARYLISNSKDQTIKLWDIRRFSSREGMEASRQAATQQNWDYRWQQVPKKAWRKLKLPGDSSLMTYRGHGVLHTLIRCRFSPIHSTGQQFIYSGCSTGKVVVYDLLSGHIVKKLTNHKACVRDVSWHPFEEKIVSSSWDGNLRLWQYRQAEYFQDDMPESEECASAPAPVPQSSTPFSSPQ

DCAF11-BRD4 [2] = molecular target: T1, DCAF11-BRD4; experiment: PROTAC activity at DCAF11/BRD4 in human MDA-MB-231 cells assessed as induction of BRD4 degradation at 10 to 100 nM incubated for 1 hrs by immunoblot analysis; format: cell-based; settings: dose 10-100 nM

| Compound | IC50 (MDA-MB-231) | IC50 (MDA-MB-468) | Activity (DCAF11-BRD4 [1]) | Activity (DCAF11-BRD4 [2]) | Activity (HEK293T) |
| --- | --- | --- | --- | --- | --- |
| Cc1sc2c(c1C)C(c1ccc(Cl)cc1)=N[C@@H](CC(=O)NCCCOCCOCCOCCCNC(=O)COc1ccc(Br)cc1/C=C1\C(=O)Nc3cc(C(F)(F)F)ccc31)c1nnc(C)n1-2 |  |  |  |  | inactive |
| Cc1sc2c(c1C)C(c1ccc(Cl)cc1)=N[C@@H](CC(=O)NCCCOCCOCCOCCCNC(=O)c1ccsc1/C=C1/C(=O)Nc3cc(C(F)(F)F)ccc31)c1nnc(C)n1-2 |  |  |  |  | inactive |
| Cc1sc2c(c1C)C(c1ccc(Cl)cc1)=N[C@@H](CC(=O)NCCCOc1c(Br)cc(Br)c(/C=C3/C(=O)Nc4cc(C(F)(F)F)ccc43)c1Br)c1nnc(C)n1-2 |  |  |  |  | inactive |
| Cc1sc2c(c1C)C(c1ccc(Cl)cc1)=N[C@@H](CC(=O)NCCCOc1ccc(Br)cc1/C=C1/C(=O)Nc3cc(C(F)(F)F)ccc31)c1nnc(C)n1-2 |  |  | > 35% |  | inactive |
| Cc1ccc(OCC(=O)NCCCOCCOCCOCCCNC(=O)C[C@@H]2N=C(c3ccc(Cl)cc3)c3c(sc(C)c3C)-n3c(C)nnc32)c(/C=C2\C(=O)Nc3ccc(Br)cc32)c1 (stereo in doubt) |  |  | > 35% |  | inactive |
| Cc1sc2c(c1C)C(c1ccc(Cl)cc1)=N[C@@H](CC(=O)NCCCOCCOCCOCCCNC(=O)COc1ccc(/C=C3/C(=O)Nc4ccc(Br)cc43)cc1)c1nnc(C)n1-2 (stereo in doubt) |  |  | > 35% | Active | inactive |

Now from value to compound, other results behind:

| IC50 (MDA-MB-231) | IC50 (MDA-MB-468) | Activity (DCAF11-BRD4 [1]) | Activity (DCAF11-BRD4 [2]) | Compound | Activity (HEK293T) |
| --- | --- | --- | --- | --- | --- |
| 20 nM | 1200 nM |  |  | Cc1ncsc1-c1ccc(CNC(=O)[C@@H]2C[C@@H](O)CN2C(=O)[C@@H](NC(=O)COCCOCCOCCNC(=O)C[C@@H]2N=C(c3ccc(Cl)cc3)c3c(sc(C)c3C)-n3c(C)nnc32)C(C)(C)C)cc1 |  |
|  |  | > 35% |  | Cc1sc2c(c1C)C(c1ccc(Cl)cc1)=N[C@@H](CC(=O)NCCCOc1cccc(/C=C3/C(=O)Nc4cc(C(F)(F)F)ccc43)c1)c1nnc(C)n1-2 | inactive |
|  |  | > 35% | Active | Cc1ccc(OCC(=O)NCCCOCCOCCOCCCNC(=O)C[C@@H]2N=C(c3ccc(Cl)cc3)c3c(sc(C)c3C)-n3c(C)nnc32)c(/C=C2\C(=O)Nc3ccc(Cl)cc32)c1 (stereo in doubt) | inactive |
|  |  | > 35% | Active | Cc1ccc(OCC(=O)NCCCOCCOCCOCCCNC(=O)C[C@@H]2N=C(c3ccc(Cl)cc3)c3c(sc(C)c3C)-n3c(C)nnc32)c(/C=C2\C(=O)Nc3ccc(F)cc32)c1 (stereo in doubt) | inactive |
|  |  | > 35% |  | Cc1ccc(OCC(=O)NCCOCCOCCOCCOCCNC(=O)C[C@@H]2N=C(c3ccc(Cl)cc3)c3c(sc(C)c3C)-n3c(C)nnc32)c(/C=C2/C(=O)Nc3cc(C(F)(F)F)ccc32)c1 (stereo in doubt) | inactive |
|  |  | > 35% | Active | Cc1sc2c(c1C)C(c1ccc(Cl)cc1)=N[C@@H](CC(=O)NCCCOCCOCCOCCCNC(=O)COc1ccc(/C=C3/C(=O)Nc4cc(C(F)(F)F)ccc43)nc1)c1nnc(C)n1-2 (stereo in doubt) | inactive |
|  |  | > 35% |  | Cc1sc2c(c1C)C(c1ccc(Cl)cc1)=N[C@@H](CC(=O)NCCCOCCOCCOCCCNC(=O)COc1ccc(/C=C3/C(=O)Nc4ccc(Cl)cc43)cc1)c1nnc(C)n1-2 (stereo in doubt) |  |
|  |  | > 35% |  | Cc1sc2c(c1C)C(c1ccc(Cl)cc1)=N[C@@H](CC(=O)NCCCOCCOCCOCCCNC(=O)COc1ccc(/C=C3/C(=O)Nc4ccc(F)cc43)cc1)c1nnc(C)n1-2 (stereo in doubt) | inactive |
|  |  | > 35% |  | Cc1sc2c(c1C)C(c1ccc(Cl)cc1)=N[C@@H](CC(=O)NCCCOc1c(Br)cc(/C=C3/C(=O)Nc4cc(C(F)(F)F)ccc43)cc1Br)c1nnc(C)n1-2 (stereo in doubt) | inactive |
